Results from ChEMBL document CHEMBL1136601, “Substituted aminopyridines as potent and selective phosphodiesterase-4 inhibitors” (Bioorg Med Chem Lett, 2003).
Active and inactive are the calls of the source. The calls are words filed in the database; no cut-off is given here.

What was measured:
[1] = biological target: 3',5'-cyclic-AMP phosphodiesterase 4A (Homo sapiens, UniProt P27815); assay: Inhibitory activity against human PDE4A expressed isoform using construct representing the common region of spliced variants as GST-fusion protein in Sf9 cells.
Sequence of 3',5'-cyclic-AMP phosphodiesterase 4A (P27815 whole entry, looked up, stated change not applied, the tested form may be a part, canonical isoform): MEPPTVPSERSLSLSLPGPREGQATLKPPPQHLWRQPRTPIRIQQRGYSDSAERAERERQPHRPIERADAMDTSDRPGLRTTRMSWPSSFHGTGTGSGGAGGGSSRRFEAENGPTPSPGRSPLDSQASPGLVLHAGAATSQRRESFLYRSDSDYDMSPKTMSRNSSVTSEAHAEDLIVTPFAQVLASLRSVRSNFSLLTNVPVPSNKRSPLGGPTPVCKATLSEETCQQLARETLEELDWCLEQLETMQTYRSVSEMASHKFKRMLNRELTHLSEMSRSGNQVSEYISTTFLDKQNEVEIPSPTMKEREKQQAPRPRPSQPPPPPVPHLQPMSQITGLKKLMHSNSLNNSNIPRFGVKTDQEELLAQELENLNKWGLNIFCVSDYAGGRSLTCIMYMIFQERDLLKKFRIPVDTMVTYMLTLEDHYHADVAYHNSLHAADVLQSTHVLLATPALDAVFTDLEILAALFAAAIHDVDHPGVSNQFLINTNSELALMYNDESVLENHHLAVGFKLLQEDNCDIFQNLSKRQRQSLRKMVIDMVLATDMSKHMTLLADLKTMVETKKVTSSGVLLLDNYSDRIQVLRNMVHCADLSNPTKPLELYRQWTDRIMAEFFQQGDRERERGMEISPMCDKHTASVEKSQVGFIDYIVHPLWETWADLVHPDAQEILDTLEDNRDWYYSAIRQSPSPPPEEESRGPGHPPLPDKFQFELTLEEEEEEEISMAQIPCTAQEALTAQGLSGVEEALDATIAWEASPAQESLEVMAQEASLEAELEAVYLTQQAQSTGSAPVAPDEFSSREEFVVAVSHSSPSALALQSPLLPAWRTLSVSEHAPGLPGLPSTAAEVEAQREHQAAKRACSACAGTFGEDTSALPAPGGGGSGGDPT

Homo sapiens = organism: Homo sapiens; assay: Inhibition of LPS-induced TNF-alpha production in human whole blood.; type: functional, organism-based
[2] = Half life period after intravenous administration at 5 mg/kg in rat; type: ADME, organism-based; design: dose 5 mg/kg, route intravenous; conditions: in vivo
[3] = Oral bioavailability (dose 20 mg/kg p.o.); type: ADME, organism-based; conditions: rat, in vivo
Ovis aries [4] = assay: In vivo inhibition of ovalbumin-induced bronchoconstriction in sheep late phase at 2.0 mg/kg ip dose 2 hr prior to challenge; type: functional; conditions: route intraperitoneal
Cavia porcellus [5] = assay: In vivo inhibition of ovalbumin-induced bronchoconstriction in conscious guinea pig at 1 mg/kg ip dose 4 hr prior 4 hr to challenge; type: functional; conditions: route intraperitoneal
Ovis aries [6] = assay: In vivo inhibition of ovalbumin-induced bronchoconstriction in sheep early phase at 2.0 mg/kg ip dose 4 hr prior to challenge; type: functional; conditions: route intraperitoneal
[7] = Cmax in ferrets after 30 mg/kg oral dose; type: ADME, organism-based, Mustela putorius furo; design: dose 30 mg/kg, route oral; conditions: ferret, in vivo
Mustela putorius furo = assay: Emesis in ferrets at 30 mg/kg oral dose; type: functional
[8] = Cmax in rats after 20 mg/kg oral dose; type: ADME, organism-based; design: dose 20 mg/kg, route oral; conditions: rat, in vivo
Ovis aries [9] = assay: In vivo inhibition of ovalbumin-induced bronchoconstriction in sheep early phase at 20 mg/kg ip dose 30 hr prior to challenge; type: functional; conditions: route intraperitoneal
Ovis aries [10] = assay: In vivo inhibition of ovalbumin-induced bronchoconstriction in sheep late phase at 20 mg/kg ip dose 2 hr prior to challenge; type: functional; conditions: route intraperitoneal
Cavia porcellus [11] = assay: In vivo inhibition of ovalbumin-induced bronchoconstriction in conscious guinea pig at 1 mg/kg ip dose 30 hr prior to challenge; type: functional; conditions: route intraperitoneal

| Compound | IC50 [1] [nM] | IC50 (Homo sapiens; Homo sapiens, Blood) [nM] | also measured |
| --- | --- | --- | --- |
| CC(=O)Nc1ccc(C(Cc2cc[n+]([O-])cc2)c2ccc(OC(F)F)c(OC(F)F)c2)cn1 (stereo not given) | 33 | 1800 | – |
| Cc1c[n+]([O-])ccc1CC(c1ccc(C(O)(C(F)(F)F)C(F)(F)F)cc1)c1ccc(OC(F)F)c(OC(F)F)c1 (stereo not given) | 1.3 | 300 | – |
| CC(C)(C)N(Cc1ccccc1)c1ccc(C(Cc2cc[n+]([O-])cc2)c2ccc(OC(F)F)c(OC(F)F)c2)cn1 (stereo not given) | 18 | 17000 | – |
| CCN(Cc1ccccc1)c1ccc(C(Cc2cc[n+]([O-])cc2)c2ccc(OC(F)F)c(OC(F)F)c2)cn1 (stereo not given) | 2.3 | 400 | – |
| CC(C)Nc1ccc(C(Cc2cc[n+]([O-])cc2)c2ccc(OC(F)F)c(OC(F)F)c2)cn1 (stereo not given) | 12 | 800 | – |
| O=C(Cc1ccccc1)Nc1ccc(C(Cc2cc[n+]([O-])cc2)c2ccc(OC(F)F)c(OC(F)F)c2)cn1 (stereo not given) | 7.8 | 3800 | – |
| CCNC(=O)Nc1ccc(C(Cc2cc[n+]([O-])cc2)c2ccc(OC(F)F)c(OC(F)F)c2)cn1 (stereo not given) | 8.3 | 1700 | – |
| [O-][n+]1ccc(CC(c2ccc(C(O)(C(F)(F)F)C(F)(F)F)cc2)c2ccc(OC(F)F)c(OC(F)F)c2)cc1 (stereo not given) | 4.2 | – | half-life [2]: > 24 h; bioavailability [3]: 70%; Efficacy (Ovis aries [4]): 95%; Efficacy (Cavia porcellus [5]): 58%; Efficacy (Ovis aries [6]): 85%; Cmax [7]: 16 µM; Emesis_ED (Mustela putorius furo): inactive; Cmax [8]: 3.5 µM |
| CC(C)N(Cc1ccccc1)c1ccc(C(Cc2cc[n+]([O-])cc2)c2ccc(OC(F)F)c(OC(F)F)c2)cn1 (stereo not given) | 9.3 | 1000 | – |
| CN(CCc1ccccc1)c1ccc(C(Cc2cc[n+]([O-])cc2)c2ccc(OC(F)F)c(OC(F)F)c2)cn1 (stereo not given) | 5.8 | 800 | – |
| O=S(=O)(Nc1ccc(C(Cc2cc[n+]([O-])cc2)c2ccc(OC(F)F)c(OC(F)F)c2)cn1)c1ccccc1 (stereo not given) | 16 | 34000 | – |
| Nc1ccc(C(Cc2cc[n+]([O-])cc2)c2ccc(OC(F)F)c(OC(F)F)c2)cn1 (stereo not given) | 31 | 1600 | – |
| CC(C)(Nc1ccc(C(Cc2cc[n+]([O-])cc2)c2ccc(OC(F)F)c(OC(F)F)c2)cn1)c1ccccc1 (stereo in doubt; (+)-3n) | 23 | – | IC50 (Homo sapiens): 10000 nM |
| [O-][n+]1ccc(CC(c2ccc(N3CCCC3)nc2)c2ccc(OC(F)F)c(OC(F)F)c2)cc1 (stereo not given) | 31 | – | – |

More lines, main results first:

| IC50 [1] [nM] | IC50 (Homo sapiens; Homo sapiens, Blood) [nM] | Compound | also measured |
| --- | --- | --- | --- |
| 2.3 | 800 | Cc1ccc(CCNc2ccc(C(Cc3cc[n+]([O-])cc3)c3ccc(OC(F)F)c(OC(F)F)c3)cn2)cc1 (stereo not given) | – |
| 1.7 | 900 | C[C@@H](Nc1ccc(C(Cc2cc[n+]([O-])cc2)c2ccc(OC(F)F)c(OC(F)F)c2)cn1)c1ccccc1 (stereo not given in full) | – |
| 0.3 | 700 | C[C@H](c1ccccc1)N(C)c1ccc(C(Cc2cc[n+]([O-])cc2)c2ccc(OC(F)F)c(OC(F)F)c2)cn1 (stereo not given in full) | – |
| 0.8 | 2100 | CN(c1ccccc1)c1ccc(C(Cc2cc[n+]([O-])cc2)c2ccc(OC(F)F)c(OC(F)F)c2)cn1 (stereo not given) | – |
| 1.2 | 300 | CN(Cc1ccccc1)c1ccc(C(Cc2cc[n+]([O-])cc2)c2ccc(OC(F)F)c(OC(F)F)c2)cn1 (stereo not given) | – |
| 1.5 | 300 | CN(Cc1ccc2ccccc2c1)c1ccc(C(Cc2cc[n+]([O-])cc2)c2ccc(OC(F)F)c(OC(F)F)c2)cn1 (stereo not given) | – |
| 0.8 | – | CC(C)(Nc1ccc(C(Cc2cc[n+]([O-])cc2)c2ccc(OC(F)F)c(OC(F)F)c2)cn1)c1ccccc1 (single isomer, unassigned; (-)) | half-life [2]: 2 h; bioavailability [3]: 100%; Efficacy (Ovis aries [9]): 64%; Efficacy (Ovis aries [10]): 97%; Efficacy (Cavia porcellus [11]): 54%; IC50 (Homo sapiens): 100 nM; Cmax [8]: 2.4 µM |
| 1.6 | – | CC(C)(Nc1ccc(C(Cc2cc[n+]([O-])cc2)c2ccc(OC(F)F)c(OC(F)F)c2)cn1)c1ccccc1 (stereo in doubt; 3n) | IC50 (Homo sapiens): 200 nM |
| 1.2 | 400 | [O-][n+]1ccc(CC(c2ccc(NCc3ccccc3)nc2)c2ccc(OC(F)F)c(OC(F)F)c2)cc1 (stereo not given) | – |
| 0.6 | 200 | CCN(c1ccc(C(Cc2cc[n+]([O-])cc2)c2ccc(OC(F)F)c(OC(F)F)c2)cn1)[C@H](C)c1ccccc1 (stereo not given in full) | – |
